Results as given in the supplement of paper PMC13380429.

Assays:
HepG2 [1] = experiment: cell viability relative to DMSO; higher = less toxic; details: 72 h
Caco-2 [2] = experiment: as above; details: 72 h
Calu-3 [3] = experiment: as above; details: 72 h
U2OS [4] = experiment: as above; details: 72 h
[5] = system: A549-ACE2 infected with SARS-CoV-2; experiment: SARS-CoV-2 infection rate relative to DMSO; higher = more infection; details: 24 h
[6] = system: A549-ACE2 infected with SARS-CoV-2; experiment: morphology score (similarity to uninfected cells); higher = more like uninfected cells; details: 24 h
A549-ACE2 [7] = experiment: phospholipidosis EC50; higher = less potent phospholipidosis inducer
HepG2 [8] = experiment: drug sensitivity score (DSS) for viability; higher = more toxic; extreme values may be limits of the assay; details: 72 h
Caco-2 [9] = experiment: as above; details: 72 h
Calu-3 [10] = experiment: as above; details: 72 h
U2OS [11] = experiment: as above; details: 72 h
HepG2 [12] = experiment: relative viability EC50 (midpoint between 100% and the lowest measured viability); higher = less toxic; details: 72 h
Caco-2 [13] = experiment: as above; details: 72 h
Calu-3 [14] = experiment: as above; details: 72 h
U2OS [15] = experiment: as above; details: 72 h
A549-ACE2 [16] = experiment: drug-induced phospholipidosis relative to tamoxifen; higher = more phospholipidosis
[17] = system: A549-ACE2 infected with SARS-CoV-2; experiment: cell count relative to DMSO; higher = less toxic; details: 24 h
Vero E6 [18] = experiment: cell viability relative to DMSO; higher = less toxic; details: 72 h
Vero E6 [19] = experiment: drug sensitivity score (DSS) for viability; higher = more toxic; extreme values may be limits of the assay; details: 72 h

CN1CC2c3ccccc3Oc3ccc(Cl)cc3C2C1 (stereo unspecified) [asenapine]
Details	SARS-CoV-2 infection rate [%]	cell count [%]	cell viability [%]	morphology score	phospholipidosis EC50 [µM]
A549-ACE2 [7], 24 h	–	–	–	–	7.2
A549-ACE2 [7], 48 h	–	–	–	–	7.65
A549-ACE2 [7], 72 h	–	–	–	–	9.6
Caco-2 [2], 1 nM	–	–	94.9	–	–
Caco-2 [2], 10 nM	–	–	108	–	–
Caco-2 [2], 100 nM	–	–	106	–	–
Caco-2 [2], 1000 nM	–	–	108	–	–
Caco-2 [2], 10000 nM	–	–	109	–	–
Calu-3 [3], 1 nM	–	–	94.9	–	–
Calu-3 [3], 10 nM	–	–	96.5	–	–
Calu-3 [3], 100 nM	–	–	90.8	–	–
Calu-3 [3], 1000 nM	–	–	104	–	–
Calu-3 [3], 10000 nM	–	–	89.2	–	–
HepG2 [1], 1 nM	–	–	112	–	–
HepG2 [1], 10 nM	–	–	106	–	–
HepG2 [1], 100 nM	–	–	103	–	–
HepG2 [1], 1000 nM	–	–	96.3	–	–
HepG2 [1], 10000 nM	–	–	96.7	–	–
U2OS [4], 1 nM	–	–	99.5	–	–
U2OS [4], 10 nM	–	–	105	–	–
U2OS [4], 100 nM	–	–	101	–	–
U2OS [4], 1000 nM	–	–	108	–	–
U2OS [4], 10000 nM	–	–	98.2	–	–
[5], 0.3 µM	94	–	–	–	–
[5], 3 µM	59	–	–	–	–
[5], 10 µM	32	–	–	–	–
[5], 30 µM	30	–	–	–	–
[6], 0.3 µM	–	–	–	0.2	–
[6], 3 µM	–	–	–	0.63	–
[6], 10 µM	–	–	–	0.71	–
[6], 30 µM	–	–	–	0.39	–
[17], 0.3 µM	–	102	–	–	–
[17], 3 µM	–	118	–	–	–
[17], 10 µM	–	109	–	–	–
[17], 30 µM	–	102	–	–	–

Details	drug sensitivity score	relative viability EC50 [µM]
Caco-2 [9]	0	–
Caco-2 [13]	–	> 10
Calu-3 [10]	0	–
Calu-3 [14]	–	> 10
HepG2 [8]	0	–
HepG2 [12]	–	> 10
U2OS [11]	0	–
U2OS [15]	–	> 10

drug-induced phospholipidosis [%], A549-ACE2 [16]
Details	0.3 µM	0.833333 µM	3.33333 µM	6.66667 µM	10 µM	30 µM
24 h	0.93	1.66	23.3	56.2	82.5	115
48 h	2.52	0.05	14.9	49	77.2	111
72 h	4.59	1.7	16.8	43.5	70.2	117

Cc1[nH]c(/C=C2\C(=O)Nc3ccc(F)cc32)c(C)c1C(=O)NCCN1CCCC1 [toceranib]
Details	SARS-CoV-2 infection rate [%]	cell count [%]	cell viability [%]	morphology score	phospholipidosis EC50 [µM]
A549-ACE2 [7], 24 h	–	–	–	–	16.5
Caco-2 [2], 1 nM	–	–	95.6	–	–
Caco-2 [2], 10 nM	–	–	94.8	–	–
Caco-2 [2], 100 nM	–	–	98.8	–	–
Caco-2 [2], 1000 nM	–	–	105	–	–
Caco-2 [2], 10000 nM	–	–	92.9	–	–
HepG2 [1], 1 nM	–	–	99.4	–	–
HepG2 [1], 10 nM	–	–	107	–	–
HepG2 [1], 100 nM	–	–	97.3	–	–
HepG2 [1], 1000 nM	–	–	106	–	–
HepG2 [1], 10000 nM	–	–	53.9	–	–
U2OS [4], 1 nM	–	–	95.5	–	–
U2OS [4], 10 nM	–	–	97.9	–	–
U2OS [4], 100 nM	–	–	103	–	–
U2OS [4], 1000 nM	–	–	96.3	–	–
U2OS [4], 10000 nM	–	–	85.2	–	–
Vero E6 [18], 1 nM	–	–	89.9	–	–
Vero E6 [18], 10 nM	–	–	99.1	–	–
Vero E6 [18], 100 nM	–	–	101	–	–
Vero E6 [18], 1000 nM	–	–	106	–	–
Vero E6 [18], 10000 nM	–	–	73.2	–	–
[5], 0.1 µM	88	–	–	–	–
[5], 0.3 µM	107	–	–	–	–
[5], 1 µM	100	–	–	–	–
[5], 3 µM	80	–	–	–	–
[6], 0.1 µM	–	–	–	0.22	–
[6], 0.3 µM	–	–	–	-0.03	–
[6], 1 µM	–	–	–	0.33	–
[6], 3 µM	–	–	–	0.51	–
[17], 0.1 µM	–	107	–	–	–
[17], 0.3 µM	–	103	–	–	–
[17], 1 µM	–	102	–	–	–
[17], 3 µM	–	111	–	–	–

Details	drug sensitivity score	relative viability EC50 [µM]
Caco-2 [9]	0	–
Caco-2 [13]	–	> 10
HepG2 [8]	2	–
U2OS [11]	0.5	–
U2OS [15]	–	> 10
Vero E6 [19]	0.8	–

drug-induced phospholipidosis [%], A549-ACE2 [16]
Details	0.3 µM	0.833333 µM	3.33333 µM	6.66667 µM	10 µM	30 µM
24 h	4.88	-0.73	12.9	38.6	54.2	119
48 h	5.94	-0.83	1.11	20.1	38.4	–
72 h	4.25	-2.8	-0.0471	16	34	–
